Reference: patent US9260481B2, “Peptide derivatives as antibiotics” (priority 2011, dated 2016)
Converted amounts (≈) assume the structure as drawn. Read-outs that look alike come from different tables or passages of the source. Numbered stars: 1 amine (or outer) side, 2 acyl side, 3 side chain; on linkers, the order of the positions; unused ones are H or OH. Square brackets hold non-standard residues; d marks the D form. Peptide text beside a SMILES is read from it. * marks the point of attachment. ξ: configuration not given here. X1 = NCC(O)CCC(N[*:1])C(=O)[*:2]; ΔZArg = N=C(N)NCC/C=C(\N)C(=O)O; ξDab(3-OH) = NCC(O)C(N)C(=O)O; Orn = NCCC[CH](N)C(=O)O; NH(CH2)4NH2 = NCCCCN*

Experiments:
K. pneumoniae ATCC 43816 = assay type: cell-based, Klebsiella pneumoniae; conditions: ATCC 43816
From the text: Vancomycin, rifampicin, kanamycin, gentamicin, ampicillin, ciprofloxacin and tetracycline (Sigma-Aldrich) were provided as standard powders by the manufacturers.

S. aureus ATCC 13709 = test: MBC in presence of human serum; assay type: cell-based, Staphylococcus aureus; conditions: for MBC S. aureus ATCC 13709: unit not given (Table 10: μg/mL)
Experimental: Minimal bactericidal concentrations (MBCs) were established by extending the MIC procedure to the evaluation of bactericidal activity. After 24 hours, 10 μL were drawn from the wells, serially diluted and then spotted onto suitable agar plates. The plates were incubated at 37° C. overnight. […] All the experiments were done in triplicate.
MBCs were also determined in presence of 50% and 95% (v/v) of human serum to assess protein binding.

Klebsiella oxytoca = system: Klebsiella oxytoca
Experimental: (§1) The minimal inhibitory concentrations (MIC) were determined according to the Clinical and Laboratory Standards Institute (CLSI) conditions guidelines detailed in Table 7. Assays were performed in triplicate.
(§2) Preparation of Inocula. Five to 10 well-isolated colonies were picked and resuspended in 3 ml sterile saline. The inoculum was re-suspended by vigorous shaking on a vortex mixer for 15 s. Turbidity was adjusted to McFarland standard 0.5 ([…]). The inoculum was further diluted in the appropriate media (Table 7) to give a final inoculum in each well of ˜2-8×10^5 CFU/ml.
(§3) Addition of Test Article. Stock solutions of Odilomycin A or comparator were diluted in the appropriate media to give a maximum starting concentration of 50 μg/mL in the assay. 50 μL of medium was dispensed into each well in columns two to 12 of a 96 well plate. 100 μL of the appropriate test compound solution (100 μg/mL) was dispensed into each well in column one. In the case of M. catarrhalis, M. haemolytica and P. multocida these values were doubled (a final assay volume of 200 μL was used). […] Columns 11 and 12 served as positive (no drug or test article, inoculum added), and negative (no drug, test article, or inoculum added) growth controls respectively.
(§4) Addition of Bacterial Strains. 50 μL of each inoculum suspension was added to the appropriate wells, resulting in a final volume of 100 μL consisting of 50 μL diluted compound or diluents, and 50 μL of inoculum or broth alone.

Haemophilus influenzae = system: Haemophilus influenzae
Experimental: as §1, §2, §3, §4

Enterococcus faecalis = system: Enterococcus faecalis
Experimental: as §1, §2, §3, §4

Moraxella catarrhalis = system: Moraxella catarrhalis
Experimental: as §1, §2, §3, §4

Enterobacter cloacae = system: Enterobacter cloacae
Experimental: as §1, §2, §3, §4

Enterococcus faecium = system: Enterococcus faecium
Experimental: as §1, §2, §3, §4

Proprionibacterium acnes = conditions: P. acnes ATCC 6919
Experimental: as §1, §2, §3, §4

Escherichia coli = system: Escherichia coli
Experimental: as §1, §2, §3, §4

Pseudomonas aeruginosa = conditions: for Antibacterial activity (MIC): unit not given in table (MICs in μg/mL)
Experimental: as §1, §2, §3, §4

Acinetobacter baumannii = system: Acinetobacter baumannii
Experimental: as §1, §2, §3, §4

Streptococcus pyogenes = system: Streptococcus pyogenes
Experimental: as §1, §2, §3, §4

Pasteurella multocida = system: Pasteurella multocida
Experimental: as §1, §2, §3, §4

Streptococcus pneumonia = system: Streptococcus pneumonia
Experimental: as §1, §2, §3, §4

Cytotoxicity test (MTS) = assay type: cell-based; conditions: human; for CC50 at 72 h: MTS; for viability at 72 h: dose of up to 100 μg/mL, read-out: cell viability
Experimental: The cytotoxicity of the Odilomycins A-C was investigated against Human colon adenocarcinoma (HT29) cells and Human normal lung fibroblasts (MRC-5) cells. 200 μL of the cell suspension of HT29 (human colorectal adenocarcinoma) prepared in RPMI 1640+1% L-Glutamine supplemented with 10% (v/v) fetal calf serum and 200 μL of the cell suspension of MRC5 (human lung fibroblast) prepared in Dulbecco's modified Eagle's medium supplemented with 25 mM glucose and 10% (v/v) fetal calf serum were inoculated into 96-well plates.
The inoculating cell number was 800 cells per well for HT29 and 2100 cells per well for MRC-5. The microplates were incubated at 37° C. for 24 h with 5% of CO2.
Twenty four hours later, Odilomycin A, B or C dissolved in water were added for 72 h at a final concentration from 0.78 μg/mL to 100 μg/mL in a fixed volume of water (1% final concentration). […] Experiments were done in triplicate.

[1] = system: S. aureus Smith ATCC 13709; test: Acute lethal infection in mice; assay type: in vivo, ICR mice; conditions: for Survival of all treated mice: S. aureus infection; for Animal deaths Day 0 / Animal deaths Day 1 / Animal deaths Day 3 / Animal deaths Day 4 / Animal deaths Day 5 / Animal deaths Day 2: mice, S. aureus 5 log10 CFU/mouse IP, n=6
Experimental: Female ICR mice ordered from Harlan Laboratories (Indianapolis, Ind.) weighing 19-21 g were used in experiments of acute lethal infection. Mice were fully immunocompetent. Infection was induced by inoculating intraperitoneally in mice a bacterial suspension of S. aureus Smith ATCC 13709. The bacterial challenges (ca 5 log10 CFU/mouse) were given suspended in 0.5 mL of 20% hog mucin. […] Mortality was tracked out to 5 days post challenge. Animals that remained surviving at the end of the study were humanely euthanized.

[2] = HT29 colon adenocarcinoma cells
[3] = MRC-5 normal lung fibroblasts, MRC-5 cells
[4] = Odilomycin A 1.0 mg/kg IV at 1 hr
[5] = Odilomycin A 2.5 mg/kg IV at 1 hr
[6] = Odilomycin A 5.0 mg/kg IV at 1 hr

SMILES: N=C(N)NCC/C=C(\NC(=O)C(CCC(O)CN)NC(=O)C(Cc1cnc[nH]1)NC(=O)C1CCCN1C(=O)C(CCCN)NC(=O)CNC(=O)C(NC(=O)C(NC(=O)C(N)CCCCN)C(O)CN)C(O)CN)C(=O)NC(CCC(O)CN)C(=O)NCCCCN (stereo not drawn) [Odilomycin A, Lys-(3-hydroxy-2,4-diaminobutanoic acid)-(3-hydroxy-2,4-diaminobutanoic acid)-Gly-Ornithine-Pro-His-(5-hydroxylysine)-(2,3-dehydroarginine)-(5-hydroxylysine)-(1,4-diaminobutane)] (H-K[ξDab(3-OH)][ξDab(3-OH)]G[Orn]PH[X1][ΔZArg][X1]-{NH(CH2)4NH2}; configuration not given here)
- MIC antibiotic alone (K. pneumoniae ATCC 43816): 25 µg/mL (≈ 19.3 µM)
- effect of serum proteins on antibacterial activity (S. aureus ATCC 13709; 50% and 95% (v/v) human serum, S. aureus ATCC 13709): weakly affected
- MBC S. aureus ATCC 13709 (S. aureus ATCC 13709; Serum 0 % (v/v)): 0.78
- MBC S. aureus ATCC 13709 (S. aureus ATCC 13709; human serum 50 % (v/v)): 1.56
- MBC S. aureus ATCC 13709 (S. aureus ATCC 13709; human serum 95 % (v/v)): 1.56
- MIC (Klebsiella oxytoca): 0.39 µg/mL (≈ 0.301 µM)
- antibacterial activity (Klebsiella oxytoca; K. oxytoca): strong
- MIC (Haemophilus influenzae): 12.5 µg/mL (≈ 9.64 µM)
- MIC (Enterococcus faecalis): >50.0 µg/mL
- antibacterial activity (Enterococcus faecalis; E. faecalis): Weak or no antibacterial activity
- MIC (Moraxella catarrhalis): 1.56 µg/mL (≈ 1.2 µM)
- MICs (Moraxella catarrhalis): < 10 µg/mL
- MIC (Enterobacter cloacae): 1.56 µg/mL (≈ 1.2 µM)
- MICs (Enterobacter cloacae): < 10 µg/mL
- MIC (Enterococcus faecium): 25.0 µg/mL (≈ 19.3 µM)
- antibacterial activity (Enterococcus faecium; E. faecium): Weak or no antibacterial activity
- MIC (Proprionibacterium acnes): 3.13 µg/mL (≈ 2.41 µM)
- MICs (Escherichia coli): < 10 µg/mL
- MIC (Escherichia coli; E. coli CTX-M14 clinical isolate AEC7): 3.13 µg/mL (≈ 2.41 µM)
- MIC (Escherichia coli; E. coli CTX-M15 clinical isolate MEC23): 3.13 µg/mL (≈ 2.41 µM)
- MIC (Pseudomonas aeruginosa): 3.12 µg/mL (≈ 2.41 µM)
- MICs (Pseudomonas aeruginosa): < 10 µg/mL
- MIC (Pseudomonas aeruginosa; P. aeruginosa ATCC 27853): 3.13 µg/mL (≈ 2.41 µM)
- Antibacterial activity (MIC) (Pseudomonas aeruginosa; P. aeruginosa multiresistant clinical isolate 5618): 6.25
- Antibacterial activity (MIC) (Pseudomonas aeruginosa; P. aeruginosa multiresistant clinical isolate 35170): >50
- Antibacterial activity (MIC) (Pseudomonas aeruginosa; P. aeruginosa multiresistant clinical isolate 42162): 25
- Antibacterial activity (MIC) (Pseudomonas aeruginosa; P. aeruginosa multiresistant clinical isolate 401681): 25
- Antibacterial activity (MIC) (Pseudomonas aeruginosa; P. aeruginosa multiresistant clinical isolate 512232): 3.12
- MIC (Acinetobacter baumannii): 6.25 µg/mL (≈ 4.82 µM)
- MICs (Acinetobacter baumannii): < 10 µg/mL
- MIC (Streptococcus pyogenes): 50.0 µg/mL (≈ 38.6 µM)
- antibacterial activity (Streptococcus pyogenes; S. pyogenes): Weak or no antibacterial activity
- MIC (Pasteurella multocida): 25.0 µg/mL (≈ 19.3 µM)
- MIC (Streptococcus pneumonia): >50.0 µg/mL
- antibacterial activity (Streptococcus pneumonia; S. pneumoniae): Weak or no antibacterial activity
- CC50 at 72 h (Cytotoxicity test (MTS); [2]): > 100 µg/mL
- viability at 72 h (Cytotoxicity test (MTS); [2]): 100%
- CC50 at 72 h (Cytotoxicity test (MTS); [3]): > 100 µg/mL
- viability at 72 h (Cytotoxicity test (MTS); [3]): 100%
- Survival of all treated mice ([1]; Odilomycin A 2.5 mg/kg IV): survived up to 5 days after infection
- Survival of all treated mice ([1]; Odilomycin A 5.0 mg/kg IV): survived up to 5 days after infection
- Animal deaths Day 0 [1, 4]: 0
- Animal deaths Day 1 [1, 4]: 0
- Animal deaths Day 3 [1, 4]: 0
- Animal deaths Day 4 [1, 4]: 0
- Animal deaths Day 5 [1, 4]: 0
- Animal deaths Day 0 [1, 5]: 0
- Animal deaths Day 1 [1, 5]: 0
- Animal deaths Day 2 [1, 5]: 0
- Animal deaths Day 3 [1, 5]: 0
- Animal deaths Day 4 [1, 5]: 0
- Animal deaths Day 5 [1, 5]: 0
- Animal deaths Day 0 [1, 6]: 0
- Animal deaths Day 1 [1, 6]: 0
- Animal deaths Day 2 [1, 6]: 0
- Animal deaths Day 3 [1, 6]: 0
- Animal deaths Day 4 [1, 6]: 0
- Animal deaths Day 5 [1, 6]: 0
